Test results from patent US20040248864A1, “Use of anthroquinones in the treatment of kidney disease” (priority 2001, published 2004).
Read-outs that look alike come from different tables or passages of the source.

Experiments:
[1] = PK profile: plasma concentration of rhein after oral dosing with diacerein; assay type: in vivo; conditions: rat
Method: FIG. 1 is a PK profile, i.e. a graph of plasma concentration of rhein (mg/ml) against time (min) post-dosing with 100, 200 and 300 mg/kg diacerein.
Consequently, the dosing for the nephrotoxic nephritis experiment was based around this dose range (see below).

nephrotoxic nephritis = experiment: rat model of nephritis (nephrotoxic nephritis): proteinuria and renal histology (crescents); assay type: in vivo; conditions: for proteinuria compared to the control: diacerein 50, 100 and oral once a day, prednisolone 2 mg/kg
Method: Experiments were conducted, using a rat model of nephritis (nephrotoxic nephritis) (Karkar et al, Kidney International, 1997). This is an aggressive immune driven model which parallels clinical conditions such as lupus nephritis, glomerulonephritis, IgA nephropathy and other immune-mediated nephritic diseases.
[…] Development of nephrotoxic nephritis was measured by the degree of proteinuria (in the control group) at days 6 and 10, post-disease initiation and by renal histology at day 10, quantified by the number of damaged nephrons (crescents) per histology section. These end-points were used to determine the success of the diacerein treatment. Alongside diacerein treatment, a negative control (drug vehicle only) and positive control (2 mg/kg prednisolone) were tested.

[2] = humans; cited from earlier work
IL-1 = conditions: Yaron et al 1999; Moldovan 2000; cited from earlier work
[3] = tested on: inducible nitric oxide synthase; conditions: osteochondrocytes, IL-1b stimulated; Pelletier 1998; cited from earlier work
[4] = tested on: MMPs 1, 3, 9 & 13 and pro-MMPs; conditions: Tamura et al 2001; cited from earlier work
TIMP-1 = conditions: Tamura et al 2001; cited from earlier work
[5] = day 6 post-disease initiation, significant at highest dose (p<0.01)
[6] = day 10 post-disease initiation, significant at top dose (p<0.01)

SMILES | oral dose required to obtain therapeutic plasma concentrations of drug [1] [mg/kg] | proteinuria compared to the control (nephrotoxic nephritis; [5]) | nephron damage (crescents per histology section) (nephrotoxic nephritis; day 10 histology, 50 mg/kg diacerein) | nephron damage (crescents per histology section) (nephrotoxic nephritis; day 10 histology, 100 mg/kg diacerein, significant (p<0.05)) | nephron damage (crescents per histology section) (nephrotoxic nephritis; day 10 histology, 200 mg/kg diacerein) | proteinuria compared to the control (nephrotoxic nephritis; [6]) | effect on both proteinuria and renal damage associated with nephrotoxic nephritis (nephrotoxic nephritis; overall summary of the study) | oral dose required to obtain therapeutic plasma concentrations of drug [2] [mg/kg] | production of the pro-inflammatory cytokine IL-1 (IL-1) | production of inducible nitric oxide synthase and production of nitric oxide [3] | effect on renal damage (histology) (nephrotoxic nephritis; day 10 histology, 2 mg/kg prednisolone) | production of key matrix metalloproteinases MMPs 1, 3, 9 & 13 and pro-MMPs [4] | production of tissue inhibitor of matrix MMP-1, TIMP-1 (TIMP-1)
CC(=O)Oc1cccc2c1C(=O)c1c(OC(C)=O)cc(C(=O)O)cc1C2=O [diacerein] | 100 to 200 | decreased compared to the control | decrease in nephron damage | decrease in nephron damage | slight increase again | dose-dependant decrease in proteinuria | significant effect | 0.8 | reduce the production | reduce the production | – | – | –
C[C@]12C=CC(=O)C=C1CC[C@@H]1[C@@H]2[C@@H](O)C[C@@]2(C)[C@H]1CC[C@]2(O)C(=O)CO [prednisolone] | – | markedly reduced proteinuria | – | – | – | unexpected rebound above the control proteinuria levels | – | – | – | – | negligible | – | –
O=C(O)c1cc(O)c2c(c1)C(=O)c1cccc(O)c1C2=O [rhein] | – | – | – | – | – | – | – | – | reduce the production | reduce the production | – | down-regulates the production | increases the production
